Measurements as given in patent US8192962B2, “Processes for detecting toxic substances” (Daikin Industries, Ltd., priority 2001, dated 2012).

System: Unknown protein yeast genes
Assay: DNA chip mRNA expression in yeast, unknown protein yeast genes (Table 1)
Assay type: cell-based, Saccharomyces cerevisiae S288C
Outline: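 Value is the scanned fluorescence intensity ratio of exposed versus chemical-free cells. Log-phase S288C yeast in YPD at 25° C. received one toxic substance for two hours, dosed to slow growth without killing; Cy3/Cy5-labeled cDNA from oligo-dT-purified mRNA was hybridized to a whole-genome chip at 65° C.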

SMILES: COc1cc(CNC(=O)CCCCC=CC(C)C)ccc1O [(12), 8-methyl-N-vanillyl-6-nonenamide]
- The level of expressed mRNA in the presence of chemical substance/The level of expressed mRNA in the absence of chemical substance (yeast gene YKL086W, incubated two hours with chemical substance): 0.6
- The level of expressed mRNA in the presence of chemical substance/The level of expressed mRNA in the absence of chemical substance (yeast gene YKL151C, incubated two hours with chemical substance): 1.0
- The level of expressed mRNA in the presence of chemical substance/The level of expressed mRNA in the absence of chemical substance (yeast gene YKL153W, incubated two hours with chemical substance): 1.1
- The level of expressed mRNA in the presence of chemical substance/The level of expressed mRNA in the absence of chemical substance (yeast gene YKL195W, incubated two hours with chemical substance): 1.1
- The level of expressed mRNA in the presence of chemical substance/The level of expressed mRNA in the absence of chemical substance (yeast gene YKR091W, incubated two hours with chemical substance): 0.9
- The level of expressed mRNA in the presence of chemical substance/The level of expressed mRNA in the absence of chemical substance (yeast gene YLR054C, incubated two hours with chemical substance): 1.1
- The level of expressed mRNA in the presence of chemical substance/The level of expressed mRNA in the absence of chemical substance (yeast gene YLR149C, incubated two hours with chemical substance): 2.0
- The level of expressed mRNA in the presence of chemical substance/The level of expressed mRNA in the absence of chemical substance (yeast gene YLR152C, incubated two hours with chemical substance): 1.0
- The level of expressed mRNA in the presence of chemical substance/The level of expressed mRNA in the absence of chemical substance (yeast gene YLR194C, incubated two hours with chemical substance): 1.6
- The level of expressed mRNA in the presence of chemical substance/The level of expressed mRNA in the absence of chemical substance (yeast gene YLR324W, incubated two hours with chemical substance): 0.8
- The level of expressed mRNA in the presence of chemical substance/The level of expressed mRNA in the absence of chemical substance (yeast gene YLR350W, incubated two hours with chemical substance): 1.8
- The level of expressed mRNA in the presence of chemical substance/The level of expressed mRNA in the absence of chemical substance (yeast gene YLR387C, incubated two hours with chemical substance): 1.1
- The level of expressed mRNA in the presence of chemical substance/The level of expressed mRNA in the absence of chemical substance (yeast gene YLR460C): 0.4
- The level of expressed mRNA in the presence of chemical substance/The level of expressed mRNA in the absence of chemical substance (yeast gene YML117W, incubated two hours with chemical substance): 0.8
- The level of expressed mRNA in the presence of chemical substance/The level of expressed mRNA in the absence of chemical substance (yeast gene YMR009W, incubated two hours with chemical substance): 0.6
- The level of expressed mRNA in the presence of chemical substance/The level of expressed mRNA in the absence of chemical substance (yeast gene YMR067C, incubated two hours with chemical substance): 1.1
- The level of expressed mRNA in the presence of chemical substance/The level of expressed mRNA in the absence of chemical substance (yeast gene YMR090W): 2.2
- The level of expressed mRNA in the presence of chemical substance/The level of expressed mRNA in the absence of chemical substance (yeast gene YMR095C, incubated two hours with chemical substance): 0.8
- The level of expressed mRNA in the presence of chemical substance/The level of expressed mRNA in the absence of chemical substance (yeast gene YMR097C, incubated two hours with chemical substance): 1.2
- The level of expressed mRNA in the presence of chemical substance/The level of expressed mRNA in the absence of chemical substance (yeast gene YMR102C, incubated two hours with chemical substance): 2.4
- The level of expressed mRNA in the presence of chemical substance/The level of expressed mRNA in the absence of chemical substance (yeast gene YMR107W, incubated two hours with chemical substance): 0.8
- The level of expressed mRNA in the presence of chemical substance/The level of expressed mRNA in the absence of chemical substance (yeast gene YMR180C, incubated two hours with chemical substance): 1.2
- The level of expressed mRNA in the presence of chemical substance/The level of expressed mRNA in the absence of chemical substance (yeast gene YMR184W, incubated two hours with chemical substance): 1.7
- The level of expressed mRNA in the presence of chemical substance/The level of expressed mRNA in the absence of chemical substance (yeast gene YMR191W, incubated two hours with chemical substance): 1.8
- The level of expressed mRNA in the presence of chemical substance/The level of expressed mRNA in the absence of chemical substance (yeast gene YMR295C, incubated two hours with chemical substance): 1.1
- The level of expressed mRNA in the presence of chemical substance/The level of expressed mRNA in the absence of chemical substance (yeast gene YMR316W, incubated two hours with chemical substance): 1.9
- The level of expressed mRNA in the presence of chemical substance/The level of expressed mRNA in the absence of chemical substance (yeast gene YNL044W, incubated two hours with chemical substance): 1.0
- The level of expressed mRNA in the presence of chemical substance/The level of expressed mRNA in the absence of chemical substance (yeast gene YNL074C, incubated two hours with chemical substance): 0.9
- The level of expressed mRNA in the presence of chemical substance/The level of expressed mRNA in the absence of chemical substance (yeast gene YNL092W, incubated two hours with chemical substance): 1.1
- The level of expressed mRNA in the presence of chemical substance/The level of expressed mRNA in the absence of chemical substance (yeast gene YNL115C, incubated two hours with chemical substance): 0.8
- The level of expressed mRNA in the presence of chemical substance/The level of expressed mRNA in the absence of chemical substance (yeast gene YNL156C, incubated two hours with chemical substance): 0.9
- The level of expressed mRNA in the presence of chemical substance/The level of expressed mRNA in the absence of chemical substance (yeast gene YNL234W, incubated two hours with chemical substance): 1.1
- The level of expressed mRNA in the presence of chemical substance/The level of expressed mRNA in the absence of chemical substance (yeast gene YNL281W, incubated two hours with chemical substance): 0.7
- The level of expressed mRNA in the presence of chemical substance/The level of expressed mRNA in the absence of chemical substance (yeast gene YNL305C, incubated two hours with chemical substance): 1.1
- The level of expressed mRNA in the presence of chemical substance/The level of expressed mRNA in the absence of chemical substance (yeast gene YNR068C, incubated two hours with chemical substance): 1.3
- The level of expressed mRNA in the presence of chemical substance/The level of expressed mRNA in the absence of chemical substance (yeast gene YOL032W, incubated two hours with chemical substance): 1.0
- The level of expressed mRNA in the presence of chemical substance/The level of expressed mRNA in the absence of chemical substance (yeast gene YOL036W, incubated two hours with chemical substance): 1.0
- The level of expressed mRNA in the presence of chemical substance/The level of expressed mRNA in the absence of chemical substance (yeast gene YOL047C, incubated two hours with chemical substance): 0.8
- The level of expressed mRNA in the presence of chemical substance/The level of expressed mRNA in the absence of chemical substance (yeast gene YOL071W, incubated two hours with chemical substance): 1.0
- The level of expressed mRNA in the presence of chemical substance/The level of expressed mRNA in the absence of chemical substance (yeast gene YOL082W, incubated two hours with chemical substance): 1.0
- The level of expressed mRNA in the presence of chemical substance/The level of expressed mRNA in the absence of chemical substance (yeast gene YOL083W, incubated two hours with chemical substance): 1.2
- The level of expressed mRNA in the presence of chemical substance/The level of expressed mRNA in the absence of chemical substance (yeast gene YOL117W, incubated two hours with chemical substance): 0.9
- The level of expressed mRNA in the presence of chemical substance/The level of expressed mRNA in the absence of chemical substance (yeast gene YOL131W, incubated two hours with chemical substance): 0.9
- The level of expressed mRNA in the presence of chemical substance/The level of expressed mRNA in the absence of chemical substance (yeast gene YOL150C): 2.9
- The level of expressed mRNA in the presence of chemical substance/The level of expressed mRNA in the absence of chemical substance (yeast gene YOL162W, incubated two hours with chemical substance): 1.4
- The level of expressed mRNA in the presence of chemical substance/The level of expressed mRNA in the absence of chemical substance (yeast gene YOR019W, incubated two hours with chemical substance): 1.0
- The level of expressed mRNA in the presence of chemical substance/The level of expressed mRNA in the absence of chemical substance (yeast gene YOR129C): 0.6
- The level of expressed mRNA in the presence of chemical substance/The level of expressed mRNA in the absence of chemical substance (yeast gene YOR197W, incubated two hours with chemical substance): 1.0
- The level of expressed mRNA in the presence of chemical substance/The level of expressed mRNA in the absence of chemical substance (yeast gene YPL087W, incubated two hours with chemical substance): 1.8
- The level of expressed mRNA in the presence of chemical substance/The level of expressed mRNA in the absence of chemical substance (yeast gene YPL196W, incubated two hours with chemical substance): 0.9
- The level of expressed mRNA in the presence of chemical substance/The level of expressed mRNA in the absence of chemical substance (yeast gene YPL206C, incubated two hours with chemical substance): 0.8
- The level of expressed mRNA in the presence of chemical substance/The level of expressed mRNA in the absence of chemical substance (yeast gene YPL222W, incubated two hours with chemical substance): 1.3
- The level of expressed mRNA in the presence of chemical substance/The level of expressed mRNA in the absence of chemical substance (yeast gene YPR023C, incubated two hours with chemical substance): 0.9
- The level of expressed mRNA in the presence of chemical substance/The level of expressed mRNA in the absence of chemical substance (yeast gene YPR151C, incubated two hours with chemical substance): 0.9
